Laboratory results published in the NIST ThermoML archive (doi:10.1016/j.jct.2005.06.011).
Numbers after ± are expanded uncertainties.

Legend:
[1] = xn = mol fraction of the nth substance listed; conditions: 101 kPa, Liquid; for speed of sound: Linear variable-path acoustic interferometer
[2] = refractive index (Na D-line) (dimensionless); xn = mol fraction of the nth substance listed; conditions: 101 kPa, Liquid

CC(C)CCO [3-methylbutan-1-ol] + CC1CCCCC1
speed of sound ([1]; 298.15 K, x2 = 0): 1259 ± 4 m/s
speed of sound ([1]; 298.15 K, x2 = 0.1002): 1255 ± 4 m/s
speed of sound ([1]; 298.15 K, x2 = 0.2011): 1250 ± 4 m/s
speed of sound ([1]; 298.15 K, x2 = 0.3001): 1246 ± 4 m/s
speed of sound ([1]; 298.15 K, x2 = 0.4016): 1242 ± 4 m/s
speed of sound ([1]; 298.15 K, x2 = 0.5019): 1238 ± 4 m/s
speed of sound ([1]; 298.15 K, x2 = 0.6012): 1234 ± 4 m/s
speed of sound ([1]; 298.15 K, x2 = 0.702): 1230 ± 4 m/s
speed of sound ([1]; 298.15 K, x2 = 0.8011): 1226 ± 4 m/s
speed of sound ([1]; 298.15 K, x2 = 0.9009): 1221 ± 4 m/s
mass density ([1]; 298.15 K, x2 = 0): 820.17 ± 8.2 kg/m3
viscosity ([1]; 298.15 K, x2 = 0): 2.779 ± 0.034 mPa·s
mass density ([1]; 298.15 K, x2 = 0.1002): 814.65 ± 8.2 kg/m3
viscosity ([1]; 298.15 K, x2 = 0.1002): 2.569 ± 0.032 mPa·s
mass density ([1]; 298.15 K, x2 = 0.2011): 809.13 ± 8.1 kg/m3
viscosity ([1]; 298.15 K, x2 = 0.2011): 2.359 ± 0.029 mPa·s
mass density ([1]; 298.15 K, x2 = 0.3001): 803.62 ± 8.1 kg/m3
viscosity ([1]; 298.15 K, x2 = 0.3001): 2.151 ± 0.027 mPa·s
mass density ([1]; 298.15 K, x2 = 0.4016): 798.1 ± 8 kg/m3
viscosity ([1]; 298.15 K, x2 = 0.4016): 1.938 ± 0.024 mPa·s
mass density ([1]; 298.15 K, x2 = 0.5019): 792.58 ± 8 kg/m3
viscosity ([1]; 298.15 K, x2 = 0.5019): 1.728 ± 0.022 mPa·s
mass density ([1]; 298.15 K, x2 = 0.6012): 787.06 ± 7.9 kg/m3
viscosity ([1]; 298.15 K, x2 = 0.6012): 1.519 ± 0.019 mPa·s
mass density ([1]; 298.15 K, x2 = 0.702): 781.54 ± 7.8 kg/m3
viscosity ([1]; 298.15 K, x2 = 0.702): 1.307 ± 0.017 mPa·s
mass density ([1]; 298.15 K, x2 = 0.8011): 776.03 ± 7.8 kg/m3
viscosity ([1]; 298.15 K, x2 = 0.8011): 1.097 ± 0.015 mPa·s
mass density ([1]; 298.15 K, x2 = 0.9009): 770.51 ± 7.7 kg/m3
viscosity ([1]; 298.15 K, x2 = 0.9009): 0.8861 ± 0.012 mPa·s
mass density ([1]; 303.15 K, x2 = 0): 816.28 ± 8.2 kg/m3
viscosity ([1]; 303.15 K, x2 = 0): 2.258 ± 0.028 mPa·s
mass density ([1]; 303.15 K, x2 = 0.1002): 810.69 ± 8.1 kg/m3
viscosity ([1]; 303.15 K, x2 = 0.1002): 2.144 ± 0.027 mPa·s
mass density ([1]; 303.15 K, x2 = 0.2011): 805.14 ± 8.1 kg/m3
viscosity ([1]; 303.15 K, x2 = 0.2011): 1.976 ± 0.025 mPa·s
mass density ([1]; 303.15 K, x2 = 0.3001): 799.57 ± 8 kg/m3
viscosity ([1]; 303.15 K, x2 = 0.3001): 1.81 ± 0.023 mPa·s
mass density ([1]; 303.15 K, x2 = 0.4016): 794.02 ± 8 kg/m3
viscosity ([1]; 303.15 K, x2 = 0.4016): 1.641 ± 0.021 mPa·s
mass density ([1]; 303.15 K, x2 = 0.5019): 788.45 ± 7.9 kg/m3
viscosity ([1]; 303.15 K, x2 = 0.5019): 1.472 ± 0.019 mPa·s
mass density ([1]; 303.15 K, x2 = 0.6012): 782.89 ± 7.8 kg/m3
viscosity ([1]; 303.15 K, x2 = 0.6012): 1.306 ± 0.017 mPa·s
mass density ([1]; 303.15 K, x2 = 0.702): 777.33 ± 7.8 kg/m3
viscosity ([1]; 303.15 K, x2 = 0.702): 1.136 ± 0.015 mPa·s
mass density ([1]; 303.15 K, x2 = 0.8011): 771.78 ± 7.7 kg/m3
viscosity ([1]; 303.15 K, x2 = 0.8011): 0.9594 ± 0.013 mPa·s
mass density ([1]; 303.15 K, x2 = 0.9009): 766.22 ± 7.7 kg/m3
viscosity ([1]; 303.15 K, x2 = 0.9009): 0.8008 ± 0.011 mPa·s
mass density ([1]; 308.15 K, x2 = 0): 812.34 ± 8.1 kg/m3
viscosity ([1]; 308.15 K, x2 = 0): 1.844 ± 0.023 mPa·s
mass density ([1]; 308.15 K, x2 = 0.1002): 806.74 ± 8.1 kg/m3
viscosity ([1]; 308.15 K, x2 = 0.1002): 1.719 ± 0.022 mPa·s
mass density ([1]; 308.15 K, x2 = 0.2011): 801.13 ± 8 kg/m3
viscosity ([1]; 308.15 K, x2 = 0.2011): 1.593 ± 0.02 mPa·s
mass density ([1]; 308.15 K, x2 = 0.3001): 795.53 ± 8 kg/m3
viscosity ([1]; 308.15 K, x2 = 0.3001): 1.47 ± 0.019 mPa·s
mass density ([1]; 308.15 K, x2 = 0.4016): 789.92 ± 7.9 kg/m3
viscosity ([1]; 308.15 K, x2 = 0.4016): 1.343 ± 0.017 mPa·s
mass density ([1]; 308.15 K, x2 = 0.5019): 784.32 ± 7.9 kg/m3
viscosity ([1]; 308.15 K, x2 = 0.5019): 1.217 ± 0.016 mPa·s
mass density ([1]; 308.15 K, x2 = 0.6012): 778.72 ± 7.8 kg/m3
viscosity ([1]; 308.15 K, x2 = 0.6012): 1.093 ± 0.014 mPa·s
mass density ([1]; 308.15 K, x2 = 0.702): 773.11 ± 7.8 kg/m3
viscosity ([1]; 308.15 K, x2 = 0.702): 0.9662 ± 0.013 mPa·s
mass density ([1]; 308.15 K, x2 = 0.8011): 767.51 ± 7.7 kg/m3
viscosity ([1]; 308.15 K, x2 = 0.8011): 0.8412 ± 0.011 mPa·s
mass density ([1]; 308.15 K, x2 = 0.9009): 761.9 ± 7.6 kg/m3
viscosity ([1]; 308.15 K, x2 = 0.9009): 0.7156 ± 0.01 mPa·s
refractive index ([2]; 298.15 K, x2 = 0): 1.4056 ± 0.0013
refractive index ([2]; 298.15 K, x2 = 0.1002): 1.4073 ± 0.0013
refractive index ([2]; 298.15 K, x2 = 0.2011): 1.4089 ± 0.0013
refractive index ([2]; 298.15 K, x2 = 0.3001): 1.4105 ± 0.0013
refractive index ([2]; 298.15 K, x2 = 0.4016): 1.4121 ± 0.0013
refractive index ([2]; 298.15 K, x2 = 0.5019): 1.4137 ± 0.0013
refractive index ([2]; 298.15 K, x2 = 0.6012): 1.4153 ± 0.0013
refractive index ([2]; 298.15 K, x2 = 0.702): 1.4169 ± 0.0013
refractive index ([2]; 298.15 K, x2 = 0.8011): 1.4185 ± 0.0013
refractive index ([2]; 298.15 K, x2 = 0.9009): 1.4201 ± 0.0013
refractive index ([2]; 303.15 K, x2 = 0): 1.4034 ± 0.0013
refractive index ([2]; 303.15 K, x2 = 0.1002): 1.405 ± 0.0013
refractive index ([2]; 303.15 K, x2 = 0.2011): 1.4066 ± 0.0013
refractive index ([2]; 303.15 K, x2 = 0.3001): 1.4081 ± 0.0013
refractive index ([2]; 303.15 K, x2 = 0.4016): 1.4097 ± 0.0013
refractive index ([2]; 303.15 K, x2 = 0.5019): 1.4112 ± 0.0013
refractive index ([2]; 303.15 K, x2 = 0.6012): 1.4128 ± 0.0013
refractive index ([2]; 303.15 K, x2 = 0.702): 1.4144 ± 0.0013
refractive index ([2]; 303.15 K, x2 = 0.8011): 1.4159 ± 0.0013
refractive index ([2]; 303.15 K, x2 = 0.9009): 1.4174 ± 0.0013
refractive index ([2]; 308.15 K, x2 = 0): 1.4013 ± 0.0013
refractive index ([2]; 308.15 K, x2 = 0.1002): 1.4028 ± 0.0013
refractive index ([2]; 308.15 K, x2 = 0.2011): 1.4043 ± 0.0013
refractive index ([2]; 308.15 K, x2 = 0.3001): 1.4058 ± 0.0013
refractive index ([2]; 308.15 K, x2 = 0.4016): 1.4073 ± 0.0013
refractive index ([2]; 308.15 K, x2 = 0.5019): 1.4088 ± 0.0013
refractive index ([2]; 308.15 K, x2 = 0.6012): 1.4103 ± 0.0013
refractive index ([2]; 308.15 K, x2 = 0.702): 1.4118 ± 0.0013
refractive index ([2]; 308.15 K, x2 = 0.8011): 1.4133 ± 0.0013
refractive index ([2]; 308.15 K, x2 = 0.9009): 1.4148 ± 0.0013

CCCO [propan-1-ol] + CC1CCCCC1
speed of sound ([1]; 298.15 K, x2 = 0): 1206 ± 4 m/s
mass density ([1]; 298.15 K, x2 = 0): 809.65 ± 8.1 kg/m3
viscosity ([1]; 298.15 K, x2 = 0): 2.077 ± 0.024 mPa·s
mass density ([1]; 303.15 K, x2 = 0): 805.5 ± 8.1 kg/m3
viscosity ([1]; 303.15 K, x2 = 0): 1.809 ± 0.022 mPa·s
mass density ([1]; 308.15 K, x2 = 0): 801.32 ± 8 kg/m3
viscosity ([1]; 308.15 K, x2 = 0): 1.595 ± 0.019 mPa·s
refractive index ([2]; 298.15 K, x2 = 0): 1.384 ± 0.0012
refractive index ([2]; 303.15 K, x2 = 0): 1.3819 ± 0.0012
refractive index ([2]; 308.15 K, x2 = 0): 1.38 ± 0.0012

CCCCO [butan-1-ol] + CC1CCCCC1
speed of sound ([1]; 298.15 K, x2 = 0): 1268 ± 4 m/s
mass density ([1]; 298.15 K, x2 = 0): 808.49 ± 8.1 kg/m3
viscosity ([1]; 298.15 K, x2 = 0): 2.587 ± 0.032 mPa·s
mass density ([1]; 303.15 K, x2 = 0): 804.6 ± 8.1 kg/m3
viscosity ([1]; 303.15 K, x2 = 0): 2.254 ± 0.028 mPa·s
mass density ([1]; 308.15 K, x2 = 0): 800.67 ± 8 kg/m3
viscosity ([1]; 308.15 K, x2 = 0): 1.988 ± 0.025 mPa·s
refractive index ([2]; 298.15 K, x2 = 0): 1.3983 ± 0.0025
refractive index ([2]; 303.15 K, x2 = 0): 1.3959 ± 0.0025
refractive index ([2]; 308.15 K, x2 = 0): 1.394 ± 0.0025
